The values that follow come from patent publication US20230135152A1 (ACURASTEM INCORPORATED, priority 2020, published 2023).

In experiment [1] the target is T1, PIKFYVE (Homo sapiens, UniProt Q9Y2I7). Nature of the experiment: Cell-based Pikfyve inhibition activity assay (EEA1 staining, mean vesicle size in BJ fibroblast cells). The following applies: Table 4, 4 hours treatment, 3 μM Apilimod = 100% inhibition. The method in brief: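 BJ fibroblasts treated 4 h at 37° C with eleven 3-fold doses (0.03-3000 nM), then fixed and stained for EEA1. Confocal images (20×, 16 tiles/well) analysed for mean vesicle size. Normalised to 0.5% DMSO (0%) and 3 μM apilimod (100%); dose-response fitted with variable slope.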

The target in experiment [2] is T1, PIKFYVE. Description: PIKFYVE assay (luciferase ADP-Glo kinase assay, Promega). It is filed as biochemical. The following applies: Table 3. The method in brief: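 ADP generated in the kinase reaction was detected by ADP-Glo luminescence (luciferase).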

T1 sequence (Q9Y2I7 whole entry): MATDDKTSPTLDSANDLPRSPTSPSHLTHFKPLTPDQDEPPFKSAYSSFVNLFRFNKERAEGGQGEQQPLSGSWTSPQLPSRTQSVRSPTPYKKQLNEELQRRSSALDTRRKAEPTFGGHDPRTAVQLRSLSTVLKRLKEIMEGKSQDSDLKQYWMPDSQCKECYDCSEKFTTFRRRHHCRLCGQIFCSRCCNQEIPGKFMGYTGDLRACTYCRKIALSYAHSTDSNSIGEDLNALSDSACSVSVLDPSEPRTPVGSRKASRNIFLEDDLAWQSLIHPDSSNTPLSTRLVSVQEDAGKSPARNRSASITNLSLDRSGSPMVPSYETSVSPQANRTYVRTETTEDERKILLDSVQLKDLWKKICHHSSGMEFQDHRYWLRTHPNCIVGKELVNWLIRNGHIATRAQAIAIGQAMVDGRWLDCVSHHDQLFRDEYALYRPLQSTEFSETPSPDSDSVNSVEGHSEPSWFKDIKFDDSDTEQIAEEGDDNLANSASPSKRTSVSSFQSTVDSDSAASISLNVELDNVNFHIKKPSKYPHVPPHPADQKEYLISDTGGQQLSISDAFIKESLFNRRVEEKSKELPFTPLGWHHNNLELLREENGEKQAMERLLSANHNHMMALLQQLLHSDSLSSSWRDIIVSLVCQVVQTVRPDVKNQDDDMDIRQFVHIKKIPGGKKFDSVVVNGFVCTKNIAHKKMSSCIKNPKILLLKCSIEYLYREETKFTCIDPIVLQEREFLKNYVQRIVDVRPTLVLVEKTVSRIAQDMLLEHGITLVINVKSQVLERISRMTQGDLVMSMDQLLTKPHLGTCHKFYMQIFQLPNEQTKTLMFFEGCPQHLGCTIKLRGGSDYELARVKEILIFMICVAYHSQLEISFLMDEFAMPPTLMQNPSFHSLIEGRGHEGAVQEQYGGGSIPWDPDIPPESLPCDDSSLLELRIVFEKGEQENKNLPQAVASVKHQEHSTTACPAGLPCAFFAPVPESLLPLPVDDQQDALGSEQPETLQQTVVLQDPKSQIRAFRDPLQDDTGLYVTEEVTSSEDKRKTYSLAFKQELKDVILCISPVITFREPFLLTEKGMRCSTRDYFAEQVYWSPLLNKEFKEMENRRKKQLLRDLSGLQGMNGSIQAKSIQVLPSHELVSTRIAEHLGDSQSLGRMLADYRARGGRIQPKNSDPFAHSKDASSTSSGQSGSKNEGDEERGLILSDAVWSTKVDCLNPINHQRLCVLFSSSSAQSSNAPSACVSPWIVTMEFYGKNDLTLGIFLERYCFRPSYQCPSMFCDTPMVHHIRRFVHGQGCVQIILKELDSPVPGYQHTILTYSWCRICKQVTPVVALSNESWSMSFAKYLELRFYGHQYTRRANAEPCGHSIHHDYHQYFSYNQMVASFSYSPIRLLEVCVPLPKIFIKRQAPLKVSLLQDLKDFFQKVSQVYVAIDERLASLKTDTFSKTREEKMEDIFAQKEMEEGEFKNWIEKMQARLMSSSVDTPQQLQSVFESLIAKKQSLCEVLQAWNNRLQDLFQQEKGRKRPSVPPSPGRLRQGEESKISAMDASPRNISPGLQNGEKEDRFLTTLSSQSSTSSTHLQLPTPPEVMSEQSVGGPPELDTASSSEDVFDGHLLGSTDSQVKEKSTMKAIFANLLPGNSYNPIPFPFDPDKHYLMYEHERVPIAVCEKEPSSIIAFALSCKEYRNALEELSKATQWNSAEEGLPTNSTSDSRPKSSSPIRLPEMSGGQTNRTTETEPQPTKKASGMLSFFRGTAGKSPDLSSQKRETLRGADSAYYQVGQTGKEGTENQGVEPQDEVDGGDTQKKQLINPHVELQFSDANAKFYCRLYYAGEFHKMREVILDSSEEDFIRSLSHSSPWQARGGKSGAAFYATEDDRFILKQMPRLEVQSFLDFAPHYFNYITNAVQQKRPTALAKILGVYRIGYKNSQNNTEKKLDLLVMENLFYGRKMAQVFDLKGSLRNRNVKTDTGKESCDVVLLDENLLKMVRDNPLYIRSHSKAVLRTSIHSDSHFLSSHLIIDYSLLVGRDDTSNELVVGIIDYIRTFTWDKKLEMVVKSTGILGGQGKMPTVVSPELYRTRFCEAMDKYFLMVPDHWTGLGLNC

In the case of `Cc1cccc(-c2ccn(-c3cc(N4CCOCC4)nc(CCc4ccnn4C)n3)n2)c1` [Compound 338, 4-(2-(2-(1-methyl-1H-pyrazol-5-yl)ethyl)-6-(3-(m-tolyl)-1H-pyrazol-1-yl)pyrimidin-4-yl)morpholine], the concentration for a half-maximal effect (EC50) – broadly, the concentration that produces a half-maximal response – on PIKFYVE [1] is above 5 µM. Besides, the IC50 (as a rule, the point on the concentration scale where inhibition reaches its midpoint) against PIKFYVE [2] fell in the range of 3 to 10 nM.

In turn, `Cc1cccc(-c2ccn(-c3cc(N4CCOCC4)nc(-n4cnc(CCO)c4)n3)n2)c1` [Compound 339, 2-(1-(4-morpholino-6-(3-(m-tolyl)-1H-pyrazol-1-yl)pyrimidin-2-yl)-1H-imidazol-4-yl)ethan-1-ol] displayed an EC50 on PIKFYVE [1] of 0.1 to 0.5 µM. In addition, the IC50 at PIKFYVE [2] is 3 to 10 nM.

As for `Cc1cccc(Oc2ccn(-c3cc(N4CCOCC4)nc(OCCc4cnn(C)c4)n3)n2)c1` [Compound 346], on PIKFYVE [1], the concentration giving a half-maximal response (EC50) was in the range of 0.02 to 0.1 µM. This compound yielded an IC50 against PIKFYVE [2] below 3 nM.

As for `COC(C)(C)c1nc(N2CCOCC2)cc(-n2ccc(-c3cccc(C)c3)n2)n1` [Compound 347, 4-(2-(2-methoxypropan-2-yl)-6-(3-(m-tolyl)-1H-pyrazol-1-yl)pyrimidin-4-yl)morpholine], the EC50 at PIKFYVE [1] was 0.1 to 0.5 µM. The half-maximal inhibitory concentration (IC50) on PIKFYVE [2] lay within 3 to 10 nM.
